Experimental data from patent US12485095B2, “Plurality of tasquinimod particles and use thereof” (ACTIVE BIOTECH AB, priority 2021, dated 2025).
≈ marks a conversion by molar mass, not a printed value.

Columns and labels:
pKa of tasquinimod = format: physicochemical; details: weak acid
Caco-2 cell model = test: gastrointestinal permeability using the Caco-2 cell model; format: in vitro ADME
Method: (§1) Tasquinimod is a compound having high gastrointestinal permeability and high aqueous solubility. […] For a drug compound to be classified as “highly soluble” according to the BCS, the highest single therapeutic dose thereof should be completely soluble in 250 ml or less of aqueous media over the pH range of 1.2-6.8 at 37±1° C. […] Based on these properties, tasquinimod is classified as a BCS Class I compound. […] In view of the high water-solubility of tasquinimod, the low dissolution rate of tasquinimod particles in aqueous phase was completely unexpected. A low dissolution rate is susceptible of reducing the bioavailability and may pose an obstacle to an efficient oral administration of an otherwise therapeutically active compound.

[1] = as above; format: in vitro ADME; details: human, read-out: permeability coefficient
Method: as §1

[2] = Biopharmaceutics Classification System (BCS) classification; format: physicochemical; details: based on permeability and solubility
Method: as §1

[3] = aqueous solubility of tasquinimod; format: physicochemical
Method: as §1

pKa (pKa of tasquinimod): 6.5
permeability ranking according to the Biopharmaceutics Classification System (BCS) (Caco-2 cell model): highly permeable
Papp [1]: 43.5 ± 0.9 ×10⁻⁶ cm/s
BCS class [2]: BCS Class I
solubility relative to BCS "highly soluble" cut-off value ([3]; aqueous media over the pH range of 1.2-6.8 at 37±1° C.): ten-fold
solubility ([3]; aqueous medium, pH 7.4, aqueous buffer): 250 µg/mL (≈ 615 µM)
solubility relative to BCS "highly soluble" cut-off value ([3]; physiological pH at 7.4): 50 fold
SMILES: COc1cccc2c1c(O)c(C(=O)N(C)c1ccc(C(F)(F)F)cc1)c(=O)n2C [tasquinimod, 4-hydroxy-5-methoxy-N, 1-dimethyl-2-oxo-N-[4-(trifluoromethyl)phenyl]-1,2-dihydroquinoline-3-carboxamide]
